Patent US20080103164A1, “USEFUL COMPOUNDS FOR HPV INFECTION” (priority 2004, published 2008)

tested on: episomal HPV-16 DNA in W12-20850 cells; assay: W-12 cellular assay: episomal HPV-16 DNA quantified by hybrid capture in W12-20850 cells; format: cell-based, HPV16; conditions: Human papillomavirus 16, 96 h, four days incubation, inhibition of episomal HPV-16 DNA relative to untreated control
Method: Compounds of the current invention are believed useful in the treatment and/or prophylaxis of conditions and diseases associated with HPV infection. Activity mediated through HPV was determined using the following W-12 cellular assay. The […] cell line used contains HPV16 DNA and was derived from a low-grade cervical dysplasia tissue by Margaret Stanley and subsequently clonally selected by Paul Lambert (University of Wisconsin). One of these clones, […]-20850, contains 1000 copies of episomal HPV16 DNA and was used in the cell-based assay. […]-20850 cells were routinely cultured with a gamma-irradiated (6000 rads) feeder layer of 3T3 cells. Assays, however, were run in the absence of a 3T3 feeder layer. […]-20850 and 3T3 cells were routinely split when they were sub-confluent. […]-20850 were grown in […] Medium which is constituted of 25% DMEM (Gibco BRL, Cat # 12430-047), 75% F12 Media (Gibco BRL, Cat # 11765-021) and 2.5% FBS. The additives include […] Adenine (Sigma, Cat # A-9795), […] Hydrocortisone (Calbiochem, Cat # 386698), […] Bovine Insulin (Sigma, Cat # 1-1882), 8.4 ng/ml cholera toxin (Fluka, Cat # 26694) and 10 ng/ml EGF (Invitrogen, Cat # 13247-051). 3T3 cells were grown in DMEM containing 10% FBS. Cell lines were incubated at 37° C., in the presence of 5% CO2. For the assay, […]-20850 cells were seeded into a 96 well plate-containing compound. Plates were incubated at 37° C. in the presence of 5% CO2, for four days. On the fourth day, cells were lysed and the amount of episomal HPV-16 DNA was quantified using a non-radioactive hybrid capture technique with HPV-16 specific capture and detection probes. The percent inhibition relative to untreated control cells was then determined. The hybrid capture assay is run in a 96 well plate format. Hybridization plates (Nunc Maxisorb Cat # 450320) were coated with a mixture of capture probe and ReactiBind solution for at least 4 hours and then washed with 0.2×SSC, 0.05% Tween-20 (SSCT) prior to blocking with 150 μl/well of 0.2 N NaOH, 1% Igepal, 10 mg/ml hsDNA for 6-8 hours. The hybridization was carried out by mixing 27 μl of lysed cells with 45 μl of denatured detection probe in 6M guanidine isothiocyanate. To prevent evaporation, 50 μl of mineral oil was added to each well. The plate was then heated to 90° C. for 6.5 minutes and the hybridization continued at 42° C. overnight. Assay plates were washed 6 times with SSC/T. Anti-digoxigenin HRP-conjugated Ab (Boehringer Mannheim 1207733, 1:5000) was incubated in the wells for 30 min at room temperature and washed with PBS/0.05% Tween-20. SuperSignal LBA substrate (Pierce Cat # 37070) was added, and chemiluminescence was measured using Wallac 1420 Victor plate reader.

First: COc1ccc2[nH]c3c(c2c1)CCN(C(=O)CCc1ccccc1)C3c1ccc(C)cc1 (stereo not drawn) [Example 23, 6-(Methyloxy)-1-(4-methylphenyl)-2-(3-phenylpropanoyl)-2,3,4,9-tetrahydro-1H-β-carboline]
Second: COc1ccc2c3c([nH]c2c1)C(c1ccc(C)cc1)N(C(=O)CCc1ccccc1)CC3 (stereo not drawn) [Example 27, 7-(Methyloxy)-1-(4-methylphenyl)-2-(3-phenylpropanoyl)-2,3,4,9-tetrahydro-1H-β-carboline]
The IC50 of the first is 10-fold lower: 600 nM for the first, 6000 nM for the second. The first is the more potent here.

First: Cc1ccc(C2c3[nH]c4ccccc4c3CCN2S(=O)(=O)Cc2ccccc2)cc1 (stereo not drawn) [Example 15, 1-(4-Methylphenyl)-2-[(phenylmethyl)sulfonyl]-2,3,4,9-tetrahydro-1H-β-carboline]
Second: Cc1ccc(C2c3[nH]c4ccccc4c3CCN2C(=O)CCc2ccccc2)cc1 (stereo not drawn) [Example 19, 1-(4-Methylphenyl)-2-(3-phenylpropanoyl)-2,3,4,9-tetrahydro-1H-β-carboline]
The IC50 of the first is 7-fold higher: 7000 nM for the first, 1000 nM for the second.

First: c1ccc(-c2ccnc(N3CCc4c([nH]c5ccccc45)C3c3ccc4c(c3)OCO4)n2)cc1 (stereo not drawn) [Example 34, 1-(1,3-benzodioxol-5-yl)-2-(4-phenyl-2-pyrimidinyl)-2,3,4,9-tetrahydro-1H-β-carboline]
Second: c1ccc(-c2ccnc(N3CCc4c([nH]c5ccccc45)C3c3ccc4c(c3)CCO4)n2)cc1 (stereo not drawn) [Example 36, 1-(2,3-dihydro-1-benzofuran-5-yl)-2-(4-phenyl-2-pyrimidinyl)-2,3,4,9-tetrahydro-1H-β-carboline]
The IC50 of the first is 1.5-fold lower: 2000 nM for the first, 3000 nM for the second.

Going from `Cc1ccc(C2c3[nH]c4cc(F)ccc4c3CCN2C(=O)CCc2ccccc2)cc1` (stereo not drawn) [Example 26, 7-Fluoro-1-(4-methylphenyl)-2-(3-phenylpropanoyl)-2,3,4,9-tetrahydro-1H-β-carboline] to `Cc1ccc(C2c3[nH]c4ccc(F)cc4c3CCN2C(=O)CCc2ccccc2)cc1` (stereo not drawn) [Example 7, 6-Fluoro-1-(4-methylphenyl)-2-(3-phenylpropanoyl)-2,3,4,9-tetrahydro-1H-β-carboline], the IC50 falls from 2000 nM to 216 nM (9.3-fold). The second is the more potent here.

Compared with `Cc1ccc([C@@H]2c3[nH]c4ccc(Cl)cc4c3CCN2C(=O)CCc2ccccc2)cc1` [Example 13, (1R)-6-Chloro-1-(4-methylphenyl)-2-(3-phenylpropanoyl)-2,3,4,9-tetrahydro-1H-β-carboline], `Cc1ccc([C@H]2c3[nH]c4ccc(Cl)cc4c3CCN2C(=O)CCc2ccccc2)cc1` [Example 14, (1S)-6-Chloro-1-(4-methylphenyl)-2-(3-phenylpropanoyl)-2,3,4,9-tetrahydro-1H-β-carboline] is 530-fold lower in IC50: 8000 nM for the first, 15 nM for the second. The second is the more potent here.

Going from `Cc1ccc(C2c3[nH]c4c(C)cccc4c3CCN2C(=O)CCc2ccccc2)cc1` (stereo not drawn) [Example 24, 8-Methyl-1-(4-methylphenyl)-2-(3-phenylpropanoyl)-2,3,4,9-tetrahydro-1H-β-carboline] to `Cc1ccc(C2c3[nH]c4ccc(C)cc4c3CCN2C(=O)CCc2ccccc2)cc1` (stereo not drawn) [Example 25, 6-Methyl-1-(4-methylphenyl)-2-(3-phenylpropanoyl)-2,3,4,9-tetrahydro-1H-β-carboline], the IC50 falls from 2000 nM to 400 nM (5-fold).

First: Cc1cn(-c2ccnc(N3CCc4c([nH]c5ccccc45)C3c3ccc4c(c3)CCO4)n2)cn1 (stereo not drawn) [Example 39, 1-(2,3-dihydro-1-benzofuran-5-yl)-2-[4-(4-methyl-1H-imidazol-1-yl)-2-pyrimidinyl]-2,3,4,9-tetrahydro-1H-β-carboline]
Second: c1ccc2c3c([nH]c2c1)C(c1ccc2c(c1)CCO2)N(c1nccc(-n2ccnc2)n1)CC3 (stereo not drawn) [Example 38, 1-(2,3-dihydro-1-benzofuran-5-yl)-2-[4-(1H-imidazol-1-yl)-2-pyrimidinyl]-2,3,4,9-tetrahydro-1H-β-carboline]
The IC50 of the first is 1.5-fold lower: 2000 nM for the first, 3000 nM for the second. The first is the more potent here.

Going from `Cc1ccc(C2c3[nH]c4ccc(Br)cc4c3CCN2C(=O)OCc2ccccc2)cc1` (stereo not drawn) [Example 12, Phenylmethyl 6-bromo-1-(4-methylphenyl)-1,3,4,9-tetrahydro-2H-β-carboline-2-carboxylate] to `Cc1ccc(C2c3[nH]c4ccc(F)cc4c3CCN2C(=O)OCc2ccccc2)cc1` (stereo not drawn) [Example 8, Phenylmethyl 6-fluoro-1-(4-methylphenyl)-1,3,4,9-tetrahydro-2H-β-carboline-2-carboxylate], the IC50 rises from 14 nM to 446 nM (32-fold).

Going from `Cc1ccc(C2c3[nH]c4ccccc4c3CCN2S(=O)(=O)c2ccc(N)cc2)cc1` (stereo not shown) [Example 17, (4-{[1-(4-Methylphenyl)-1,3,4,9-tetrahydro-2H-b-carbolin-2-yl]sulfonyl}phenyl)amine] to `Cc1ccc(C2c3[nH]c4ccccc4c3CCN2S(C)(=O)=O)cc1` (stereo not drawn) [Example 16, 1-(4-Methylphenyl)-2-(methylsulfonyl)-2,3,4,9-tetrahydro-1H-β-carboline], the IC50 rises from 10000 nM to 24000 nM (2.4-fold). The first is the more potent here.

Going from `CC(=O)N1CCc2c([nH]c3ccccc23)C1c1ccc(C)cc1` (stereo not drawn) [Example 18, 2-Acetyl-1-(4-methylphenyl)-2,3,4,9-tetrahydro-1H-β-carboline] to `Cc1ccc(C2c3[nH]c4ccccc4c3CCN2C(=O)C#Cc2ccccc2)cc1` (stereo not shown) [Example 20, 1-(4-Methylphenyl)-2-(3-phenyl-2-propynoyl)-2,3,4,9-tetrahydro-1H-b-carboline], the IC50 rises from 5000 nM to 26000 nM (5.2-fold).

Going from `COC(=O)N1CCc2c([nH]c3ccc(F)cc23)C1c1ccc(C)cc1` (stereo not drawn) [Example 6, Methyl 6-fluoro-1-(4-methylphenyl)-1,3,4,9-tetrahydro-2H-β-carboline-2-carboxylate] to `COC(=O)N1CCc2c([nH]c3ccc(Br)cc23)C1c1ccc(C)cc1` (stereo not drawn) [Example 10, Methyl 6-bromo-1-(4-methylphenyl)-1,3,4,9-tetrahydro-2H-β-carboline-2-carboxylate], the IC50 falls from 365 nM to 11 nM (33-fold).

`c1cnc(N2CCc3c([nH]c4ccccc34)C2c2ccc3c(c2)OCO3)nc1` (stereo not drawn) [Example 33, 1-(1,3-benzodioxol-5-yl)-2-(2-pyrimidinyl)-2,3,4,9-tetrahydro-1H-β-carboline] and `c1cncc(-c2ccnc(N3CCc4c([nH]c5ccccc45)C3c3ccc4c(c3)CCO4)n2)c1` (stereo not drawn) [Example 37, 1-(2,3-dihydro-1-benzofuran-5-yl)-2-[4-(3-pyridinyl)-2-pyrimidinyl]-2,3,4,9-tetrahydro-1H-β-carboline] are within 1.5-fold of each other in IC50: 5000 nM for the first, 4000 nM for the second.

Going from `Cc1ccc(C2c3[nH]c4ccc(Cl)cc4c3CCN2C(=O)CCc2ccccc2)cc1` (stereo not drawn) [Example 3, 6-Chloro-1-(4-methylphenyl)-2-(3-phenylpropanoyl)-2,3,4,9-tetrahydro-1H-β-carboline] to `Cc1ccc(C2c3[nH]c4ccc(Br)cc4c3CCN2C(=O)CCc2ccccc2)cc1` (stereo not drawn) [Example 11, 6-Bromo-1-(4-methylphenyl)-2-(3-phenylpropanoyl)-2,3,4,9-tetrahydro-1H-β-carboline], the IC50 falls from 60 nM to 20 nM (3-fold). The second is the more potent here.

First: O=C(/C=C/c1ccccc1)N1CCc2c([nH]c3ccccc23)[C@@H]1c1ccc2c(c1)CCO2 [Example 31, (1S)-1-(2,3-dihydro-1-benzofuran-5-yl)-2-[(2E)-3-Phenyl-2-propenoyl]-2,3,4,9-tetrahydro-1H-β-carboline]
Second: Cc1ccc(C2c3[nH]c4ccccc4c3CCN2C(=O)CNC(=O)OCc2ccccc2)cc1 (stereo not shown) [Example 22, Phenylmethyl {2-[1-(4-methylphenyl)-1,3,4,9-tetrahydro-2H-b-carbolin-2-yl]-2-oxoethyl}carbamate]
The IC50 of the first is 2-fold lower: 2000 nM for the first, 4000 nM for the second. The first is the more potent here.

First: Cc1ccc(C2c3[nH]c4ccccc4c3CCN2C(=O)CCc2cccnc2)cc1 (stereo not drawn) [Example 21, 1-(4-Methylphenyl)-2-[3-(3-pyridinyl)propanoyl]-2,3,4,9-tetrahydro-1H-β-carboline]
Second: c1ccc(-c2ccnc(N3CCc4c([nH]c5ccccc45)C3c3ccccc3)n2)cc1 (stereo not drawn) [Example 35, 1-phenyl-2-(4-phenyl-2-pyrimidinyl)-2,3,4,9-tetrahydro-1H-β-carboline]
The IC50 of the first is 9-fold higher: 18000 nM for the first, 2000 nM for the second. The second is the more potent here.

same assay, conditions: four days incubation, inhibition of episomal HPV-16 DNA relative to untreated control

Compound `O=C(/C=C/c1ccccc1)N1CCc2c([nH]c3ccccc23)C1c1ccc2c(c1)CCO2` (stereo not drawn) [Example 29, (1R/1S)-1-(2,3-dihydro-1-benzofuran-5-yl)-2-[(2E)-3-phenyl-2-propenoyl]-2,3,4,9-tetrahydro-1H-β-carboline] has an IC50 of 3000 nM.
